Measurements published in patent publication EP4796125A1, “TREATMENT OF PATIENT WITH NEGATIVE P53 GENE MUTATION, POSITIVE KRAS GENE MUTATION AND POSITIVE BRCA MUTATION” (Ascentawits Pharmaceuticals, Ltd., priority 2023, dated 2025).
pIC50: −log10 of the molar value.

Assays:
[1] = tested on: A549 cells; experiment: Cell cycle G2/M arrest, PI staining and flow cytometry; type: cell-based; settings: 0.3-9 nM AST-3424 ± 5 µM Nutlin-3 (AST-3424 pre-treatment 2 hours), second experiment (Figure 10)
Experimental: The remaining operations were similar to those of the above experiment, and the compound treatment was as follows:
• For H460 cell line, 1% DMSO, adding 5 µM Nutlin-3 for treatment for 22 hours, adding 0.03 nM AST-3424 for treatment for 24 hours, adding 0.1 nM AST-3424 for treatment for 24 hours, adding 0.3 nM AST-3424 for treatment for 24 hours, and adding 1 nM AST-3424 for treatment for 24 hours; • For A549 cell line, 1% DMSO, adding 5 µM Nutlin-3 for treatment for 22 hours, adding 0.3 nM AST-3424 for treatment for 24 hours, adding 1 nM AST-3424 for treatment for 24 hours, adding […] AST-3424 for treatment for 24 hours.
For A549 cell line, • Adding 0.3 nM AST-3424 for pre-treatment for 2 hours, and then adding 5 µM Nutlin-3 for co-treatment for 22 hours; • Adding 1 nM AST-3424 for pre-treatment for 2 hours, and then adding 5 µM Nutlin-3 for co-treatment for 22 hours; • Adding 3 nM AST-3424 for pre-treatment for 2 hours, and then adding 5 µM Nutlin-3 for co-treatment for 22 hours; • Adding 9 nM AST-3424 for pre-treatment for 2 hours, and then adding 5 µM Nutlin-3 for co-treatment for 22 hours.

[2] = tested on: NCI-H460 cells; experiment: In vitro proliferation under normoxia conditions (CTG, 72 hours), Example 29; type: cell-based; settings: Homo sapiens, Table 25, normoxia, alone or + 3 µM AST-3021
Experimental: • 1) NCI-H460 and NCI-H460 P53KO # 1 cell suspensions were added to 96-well plate (100 µL per well), with a cell density of 2000 cells/well. • 2) The cells were cultured overnight in a 37°C, 5% CO2 incubator. • 3) Compound Treatment
Monotherapy: 24 hours after cell plating, each well was supplemented with 99.5 µL of growth medium. Then, 0.5 µL of test compounds at different concentrations was added. The plate was gently shaken to ensure even mixing, and then placed in a 37°C, 5% CO2 incubator.
Combination therapy: 24 hours after cell plating, each well was supplemented with 99 µL of growth medium. Then, 0.5 µL of the combination compound was added. The plate was gently shaken to ensure even mixing, and then placed in an incubator for 2 hours. Then, 0.5µL of test compounds at different concentrations was added. The plate was gently shaken to ensure even mixing, and then placed in a 37°C, 5% CO2 incubator. • 4) The cell plate was placed in the incubator for 72 hours. • 5) The cell plate to be tested was placed at room temperature and equilibrated for 30 minutes, and 100 µL of medium was discarded from each well. • 6) 25 µL of CTG reagent was added to each well, placed at a fast shaker to shake for 2 minutes, and placed at room temperature for 30 minutes (protected from light). • 7) The chemiluminescence signal value was read using a multifunctional microplate reader with a reading time of 1000 ms. • 8) IC50 (half maximal inhibitory concentration) values were calculated using GraphPad Prism 5 software.

[3] = tested on: cell lines and mouse tumor models of KRAS pathogenic mutations; settings: in vitro and in vivo pharmacodynamic experiments; data of WO2023046060A1; cited from earlier work
[4] = tested on: H460 cells; experiment: Applicant's previous cancer cell proliferation inhibition test; type: cell-based; settings: Homo sapiens, NCI-H460, single drug, applicant's previous test data

SMILES: C[C@H](OP(=O)(N1CC1)N1CC1)c1ccc([N+](=O)[O-])c(Oc2cccc(C(=O)N(C)C)c2)c1 [AST-3424]
- G2/M cell cycle arrest [1]: induces concentration-dependent G2/M cell cycle arrest
- pIC50 [2]: 9.37
- sensitivity of cell lines and mouse tumor models of KRAS pathogenic mutations [3]: more sensitive
- pIC50 [4]: 9.33
